Laboratory results from patent publication US11219221B2 (FarmHannong Co., Ltd., priority 2017, dated 2022).

Key:
Assay in all cases: PPO enzyme inhibition (IC50), MBP-fused PPO
Type in all cases: biochemical
Settings in all cases: 50 μM protoporphyrinogen IX, pH 8.0, room temperature, 30 min
[1] = biological target: Spirulina subsalsa PPO CyPPO16 (SEQ ID NO: 1) variant V305M (MBP fusion)
Procedure: (§1) Thus, PPO proteins of wild type and variants were expressed as fused to MBP and were used for experiments.
(§2) The following process for purification of PPO protein was performed in a 4° C. cold room. Amylose resin (NEB) was packed to 1.5×15 cm column (Bio-Rad, Econo Columns 1.5×15 cm, glass chromatography column, max. vol), and the obtained protein extracts were loaded to the column at a flow rate of 0.2 ml/min. The column was washed with 3 column volumes of buffer and the presence of protein in the washing solution was examined. When the protein was no longer detected, the washing procedure was terminated. Then, the MBP-PPO protein was eluted with approximately 2 column volumes of buffer containing 20 mM maltose. The protein concentration of each eluent was determined and the elution was stopped when the protein was no longer detected. Ten microliter of each fraction was investigated for protein quantification and SDS-PAGE analysis. The highly pure fractions of PPO protein variants were used for the enzyme assay.
(§3) Since protoporphyrinogen IX, a substrate of PPO protein, was not commercially available, it was chemically synthesized in the laboratory. Overall process was performed in dark under nitrogen stream. […] of protoporphyrin IX was dissolved in 20 ml of 20% (v/v) EtOH, and stirred under dark condition for 30 minutes. The obtained protoporphyrin IX solution was put into a 15 ml screw tube in an amount of 800 μl, and flushed with nitrogen gas for 5 minutes. To this, 1.5 g of sodium amalgam was added and vigorously shaken for 2 minutes. The lid was opened to exhaust hydrogen gas in the tube. Thereafter, the lid was closed and incubated for 3 minutes. The protoporphyrinogen IX solution was filtered using syringe and cellulose membrane filter. […] To determine the enzyme activity of PPO protein, a reaction mixture was prepared with the following composition (based on 10 ml): 50 mM Tris-Cl (pH 8.0); 50 mM NaCl; 0.04% (v/v) Tween 20; 40 mM glucose (0.072 g); 5 units glucose oxidase (16.6 mg); and 10 units catalase (1 μl).
(§4) Hundred and eighty microliters of a reaction mixture containing the purified PPO protein were placed in 96 well plates and 20 μl of […] were added. […] The reaction proceeded at room temperature for 30 min and the fluorescence of protoporphyrin IX was measured using Microplate reader (Sense, Hidex) (excitation: 405 nm; emission: 633 nm). […] To this, 2.7 N HCl was added, and the absorbance at 408 nm was measured. A standard curve was generated using standard protoporphyrin IX, and PPO activity was measured by calibration of protoporphyrin IX using the standard curve of protoporphyrin IX.

[2] = biological target: Spirulina subsalsa PPO CyPPO16 (SEQ ID NO: 1) variant L327T (MBP fusion)
Procedure: as §1, §2, §3, §4

[3] = biological target: Spirulina subsalsa PPO CyPPO16 (SEQ ID NO: 1) variant A162L (MBP fusion)
Procedure: as §1, §2, §3, §4

[4] = biological target: Spirulina subsalsa PPO CyPPO16 (SEQ ID NO: 1) variant R85A (MBP fusion)
Procedure: as §1, §2, §3, §4

[5] = biological target: Spirulina subsalsa PPO CyPPO16, wild type, SEQ ID NO: 1 (MBP fusion)
Procedure: as §1, §2, §3, §4

[6] = biological target: Spirulina subsalsa PPO CyPPO16 (SEQ ID NO: 1) variant V160C (MBP fusion)
Procedure: as §1, §2, §3, §4

Work on `Cc1nn(-c2cc(NS(C)(=O)=O)c(Cl)cc2Cl)c(=O)n1C(F)F` [sulfentrazone] yielded an IC50 [1] of 305 nM, an IC50 [2] of 1830 nM and an IC50 [3] of 1100 nM. It also gave an IC50 [4] of 1040 nM, an IC50 [5] of 245 nM and an IC50 [6] of 584 nM.
In the case of `C#CCN1C(=O)COc2cc(F)c(N3C(=O)C4=C(CCCC4)C3=O)cc21` [flumioxazin], the IC50 [1] is reported as 38 nM, the IC50 [2] is reported as 780 nM and the IC50 [3] is reported as 578 nM. It also gave an IC50 [4] of 59 nM, an IC50 [5] of 14 nM and an IC50 [6] of 57 nM.
